Laboratory results published in patent US20090118264A1, “Medicament having neovascularization promoting action” (Research Foundation Itsuu Laboratory, priority 2005, published 2009).
Read-outs that look alike come from different tables or passages of the source.

Tests used:
[1] = system: human umbilical vein endothelial cells and human skin fibroblasts; test: Neovascularization in co-culture system of human umbilical vein endothelial cells and human skin fibroblasts (Neovascularization Kit), anti-CD31 immunostaining; format: cell-based
Experimental: The effect of LE135 on neovascularization was investigated by using a co-culture system of human umbilical vein endothelial cells and human skin fibroblasts (Neovascularization Kit, Kurabo Industries Ltd.). The vascular endothelial growth factor (VEGF) having a potent neovascularization action, added to 8 wells at a final concentration of 10 ng/ml, was used as positive control. Culture medium alone added to 8 wells without addition of the medicament was used as negative control. LE135 was added to the wells (8 wells for each group) at various concentrations, and culture was performed for 11 days. Immunostaining was performed by using anti-CD31 (PECAM1) antibodies directed to the vascular endothelial cells to determine the areas of luminal structures similar to blood vessels showing positive results and the numbers of branchings as an index of maturity of the formed luminal structures. The luminal structure areas and the numbers of branchings observed in the wells added with the medicament (LE135 or VEGF as the positive control) at various concentrations are shown in Table 1 in terms of relative values based on the luminal structure area and the number of branchings observed in the medicament-free wells as the negative control, which were taken as 100, respectively.
The effects of RAR antagonists other than LE135 on neovascularization were examined by using a co-culture system of human umbilical vein endothelial cells and human skin fibroblasts (Neovascularization Kit, Kurabo Industries Ltd.). The vascular endothelial growth factor (VEGF) having a potent neovascularization action added to wells at a final concentration of […] was used as positive control. Culture medium alone added to wells without addition of the medicament was used as negative control. Each compound was added at a concentration of 10^−9 mol/L, and culture was performed for 11 days. Immunostaining was performed by using anti-CD31 (PECAM1) antibodies directed to vascular endothelial cells to determine the areas of luminal structures similar to blood vessels showing positive results and the numbers of branchings as an index of maturity of the formed luminal structures. The luminal structure areas and the numbers of branchings observed in the wells added with the medicament at each given concentration are shown in the following table in terms of relative values based on the luminal structure area and the number of branchings observed in the medicament-free wells as the negative control, which were taken as 100, respectively.

[2] = system: mouse lower extremity ischemia model; test: Neovascularization experiment using mouse lower extremity ischemia model; format: in vivo, mice (C3H/HeNCrj)
Experimental: The femoral arteries on one side of 24 to 36-week old wild-type male mice (C3H/HeNCrj) were ligated and separated to prepare lower extremity ischemia model mice. […] The blood flow ratio between the affected extremities and the normal extremities was determined by the laser Doppler method on the day before the operation and 1, 3, 4, 5, 7, 9, 12, 14, 16, 18, 21, 24 and 28 days after the operation. […] In order to detect vascular endothelial cells in muscle tissues of the affected extremities on 21st day after the operation, immunostaining was performed by using anti-CD31 (PECAM1) antibodies.

[3] = system: rabbit lower extremity ischemia model; test: Intramuscular administration to rabbit lower extremity ischemia model, angiography; format: in vivo, rabbits; conditions: 10^−8 M LE135 solution injected into femoral muscles, 3 times per week; 28th day from the ligature; compared with control group (FIG. 2)
Experimental: The external iliac arteries on one side of rabbits were ligated and separated, and a 10^−8 M LE135 solution was injected into the femoral muscles on the same side to examine the neovascularization effect of the medicament. A solution of an organic solvent alone in the same amount as used for dissolution of LE135 was used as a negative control. The solutions were administered 3 times per week from the next day of the ligature. […] The blood vessels surrounded by the broken lines are considered to be collateral blood routes. In the figure, the white arrows* indicate the common iliac arteries.

[4] = Example 4: each compound 10^−9 mol/L, culture 11 days, relative value, negative control taken as 100, mean ± SD (Table 3)
[5] = LE135 10^−9 M, culture 11 days, relative value, negative control taken as 100, mean ± SD (Table 1)
[6] = LE135 10^−10 M, culture 11 days, relative value, negative control taken as 100, mean ± SD
[7] = LE135 10^−11 M, culture 11 days, relative value, negative control taken as 100, mean ± SD

Row | Compound | Blood vessel luminal structure area (in words) ([1]; Example 4: 10^−9 mol/L, versus negative control) | Area (luminal structure area) [1, 4] | Number of branchings [1, 4] | Area (luminal structure area) [1, 5] | Number of branching [1, 5] | Area (luminal structure area) [1, 6] | Number of branching [1, 6] | Area (luminal structure area) [1, 7] | Number of branching [1, 7] | Promotion of neovascularization ([1]; concentrations of 10^−10 and 10^−9 M, versus negative control) | CD31-positive cell count per field (200×) ([2]; mice orally administered with 5 mg/kg of LE135, muscle tissues of affected extremities, 21st day after the operation) | Numbers of endothelial cells (CD31-positive cells), in words ([2]; muscle tissues of affected extremities, 21st day after the operation, compared with no medicament-administered group) | Necrosis or amputation in the lower extremities ([2]; orally 5 mg/kg of LE135, 28th day after the operation, about 30% in no medicament-administered mice) | Blood flow ratio between affected and normal extremities (laser Doppler method) ([2]; orally 5 mg/kg of LE135, up to 28 days after the operation, compared with no medicament-administered mice (FIG. 1)) | Formation of collateral blood routes (angiography) [3] | Number of branching [1] | Number of branchings [1] | Area (luminal structure area) ([1]; Example 4: VEGF final concentration 10 μg/ml, culture 11 days, relative value, negative control taken as 100 (Table 3)) | Area (luminal structure area) ([1]; VEGF final concentration 10 ng/ml, culture 11 days, relative value, negative control taken as 100 (Table 1))
1 | CN1c2cc3c(cc2N=C(c2ccc(C(=O)O)cc2)c2ccc4ccccc4c21)C(C)(C)CCC3(C)C [LE540] | significantly increased the blood vessel luminal structure area | 172.02 ± 22.00 | 195.33 ± 24.49 | – | – | – | – | – | – | – | – | – | – | – | – | – | – | – | –
2 | CN1c2cc3c(cc2N=C(c2ccc(C(=O)O)cc2)c2ccccc21)C(C)(C)CCC3(C)C [LE135, 4-(5H-7,8,9,10-tetrahydro-5,7,7,10,10-pentamethylbenzo[e]naphtho[2,3-b][1,4]diazepin-13-yl)benzoic acid] | – | 158.73 ± 6.89 | 170.09 ± 14.87 | 112.52 ± 4.68 | 150.31 ± 10.26 | 116.30 ± 5.69 | 137.40 ± 9.48 | 109.09 ± 4.89 | 118.70 ± 9.27 | significantly promoted neovascularization | 21.63 ± 4.12 per field (200×) | significantly higher numbers of endothelial cells | no mouse among the LE135-administered mice was observed to have necrosis or amputation | Significant improvement of the blood flow | evidently better formation of collateral blood routes | – | – | – | –
3 | VEGF | – | – | – | – | – | – | – | – | – | – | – | – | – | – | – | 154.20 ± 7.12 | 321.50 ± 42.17 | 202.52 ± 18.40 | 134.88 ± 4.42
